Test results from PMC7129073 (Clinical Microbiology and Infection, 2015).
Values after ≈ are worked out from the molar mass of the structure shown.

Columns and labels:
Streptococcus pneumoniae [1] = test: BSAC agar dilution, lower respiratory isolates UK and Ireland; format: cell-based
[2] = tested on: ‘wild type’ Staphylococcus epidermidis skin isolates; test: NCCLS disk diffusion; format: cell-based; details: 52 isolates
[3] = tested on: Total pathogens in community acquired pneumonia; test: Sensitivity of CAP pathogens with/without antibiotic pretreatment; format: cell-based
Kl. pneumoniae = test: as above; format: cell-based, Klebsiella pneumoniae
Moraxella spp. = test: Disk diffusion; format: cell-based; details: 35 isolates
S. pyogenes [4] = test: Sensitivity of CAP pathogens with/without antibiotic pretreatment; format: cell-based, Streptococcus pyogenes; details: Abs. 4
Other Haemophilus sp. = test: as above; format: cell-based
S. pneumoniae [5] = test: MIC of invasive strains, Saint George Hospital 2001–2004; format: cell-based, Streptococcus pneumoniae
C. difficile = test: E-test, isolates from a department of surgery; format: cell-based, Clostridium difficile; details: Clostridioides difficile, read-out: MIC of high level resistant strains
ERSP = test: Broth microdilution; format: cell-based, Streptococcus pneumoniae
Enterococcus sp = test: Sensitivity of CAP pathogens with/without antibiotic pretreatment; format: cell-based
PRSP = test: Broth microdilution; format: cell-based, Streptococcus pneumoniae
P. aeruginosa [6] = test: Sensitivity of CAP pathogens with/without antibiotic pretreatment; format: cell-based, Pseudomonas aeruginosa; details: Abs. 3
S. -pneumoniae = test: as above; format: cell-based, Streptococcus pneumoniae
S. pneumoniae [7] = test: Broth microdilution; format: cell-based, Streptococcus pneumoniae
Other Enterobacteriacae = test: Sensitivity of CAP pathogens with/without antibiotic pretreatment; format: cell-based, Enterobacteriaceae
E. coli [8] = test: as above; format: cell-based, Escherichia coli
H. influenzae [9] = test: Disk diffusion; format: cell-based, Haemophilus influenzae; details: 237 isolates
[10] = tested on: biofilms of S. aureus (SA204 and SA195) and S. epidermidis (ATCC35983 and ATCC35984); test: Antibiotic lock, in vitro biofilm on polyurethane film, viable counts; format: cell-based, Staphylococcus species; details: any of the time intervals examined
[11] = tested on: pathogens in community acquired pneumonia of different severity; test: Sensitivity of CAP pathogens by Fine severity group; format: cell-based
S. aureus = test: Sensitivity of CAP pathogens with/without antibiotic pretreatment; format: cell-based, Staphylococcus aureus
H. influenzae [12] = test: Disk diffusion, sputum isolates Athens 2001–2004; format: cell-based, Haemophilus influenzae
S. pyogenes [13] = test: Broth microdilution; format: cell-based, Streptococcus pyogenes; details: 212 isolates
S. pneumoniae (Sp) = test: Broth microdilution, point prevalence study Spain; format: cell-based, Streptococcus pneumoniae; details: 360 isolates, February 2004; penicillin I+R
[14] = tested on: Other non-fermenting bacteria; test: Sensitivity of CAP pathogens with/without antibiotic pretreatment; format: cell-based
S. pneumoniae (SPN) = test: SENTRY Brazil, NCCLS broth microdilution; format: cell-based, Streptococcus pneumoniae
[15] = tested on: beta-haemolytic streptococcal isolates; test: Disk diffusion; format: cell-based, beta-haemolytic streptococci; details: 228 isolates
H. influenzae [16] = test: Sensitivity of CAP pathogens with/without antibiotic pretreatment; format: cell-based, Haemophilus influenzae
Staph. coaq (−) = test: as above; format: cell-based, coagulase-negative Staphylococcus
H.influenzae = test: Broth microdilution; format: cell-based, Haemophilus influenzae; details: Haemophilus influenzae
[17] = tested on: viridans group streptococci (VGS); test: MIC; format: cell-based
E. coli [18] = test: Disk diffusion, urine isolates of BPH patients; details: strains isolated after operative intervention
[19] = tested on: glycopeptide intermediate Staphylococcus species (GISS); test: VITEK II, screening plate and E test, blood isolates; format: cell-based, coagulase-negative Staphylococci; details: 73 GISS strains
K. pneumoniae = test: MIC; format: cell-based, Klebsiella pneumoniae; details: BSAC
E. coli [20] = test: E-test susceptibility; format: cell-based, Escherichia coli
Staphylococcus aureus [21] = test: Susceptibility testing; format: cell-based; details: conjunctival isolates 2000–2004
nontyphoidal Salmonella = test: Agar dilution, isolates from chickens 1998–2004; format: cell-based, Salmonella spp.
Enterobacter spp = test: E-test susceptibility; format: cell-based
K. oxytoca = test: E-test susceptibility; format: cell-based, Klebsiella oxytoca
[22] = tested on: Salmonella, other 49 serotypes; test: Disk diffusion, food isolates Spain; format: cell-based; details: n = 115
Acinetobacter = test: Disk diffusion; format: cell-based; details: 37 isolates selected as resistant to beta-lactams
[23] = tested on: Staphylococcus coagulase negative (CNS); test: Susceptibility testing; format: cell-based; details: conjunctival isolates 2000–2004
Escherichia coli = test: EARSS Ireland, invasive isolates; format: cell-based; details: Jan'01–Jun'04, 2432 isolates
Haemophilus influenzae = test: Susceptibility testing; format: cell-based; details: conjunctival isolates 2000–2004
[24] = tested on: Salmonella serotype Typhimurium; test: Disk diffusion, food isolates Spain; format: cell-based; details: n = 53
Shigella spp. = test: Disk diffusion, stool isolates Tehran; format: cell-based; details: 96 isolates
[25] = tested on: Salmonella serotype Enteritidis; test: Disk diffusion, food isolates Spain; format: cell-based; details: n = 96
enterococci = test: Disk diffusion, urine isolates of BPH patients; details: strains isolated post-operatively
P. aeruginosa [26] = test: Disk diffusion, urine isolates of BPH patients
Streptococcus pneumoniae [27] = test: Susceptibility testing; format: cell-based; details: 99 isolates tested
Staphylococcus aureus [28] = test: EARSS Ireland, invasive isolates; format: cell-based
S. aureus SCVs = test: Resistance of small colony variants from cystic fibrosis patients; format: cell-based, Staphylococcus aureus; details: CF patients, Frankfurt 2004
Escherichia coli (ECO) = test: Broth microdilution; format: cell-based; details: 2001
[29] = tested on: Streptococcus pyogenes (SPY); test: MIC; format: cell-based; details: 2522 isolates
S. pneumoniae [30] = test: PROTEKT Italy, NCCLS microdilution; format: cell-based, Streptococcus pneumoniae
S. pyogenes [31] = test: PROTEKT Italy, NCCLS microdilution; format: cell-based, Streptococcus pyogenes; details: year 1: 2002
[32] = tested on: Haemophilus influenzae (HI); test: MIC; format: cell-based; details: 7489 isolates
[33] = tested on: Streptococcus pneumoniae (SPN); test: MIC; format: cell-based; details: 8378 isolates
[34] = tested on: Moraxella catarrhalis (MC); test: MIC; format: cell-based; details: 2497 isolates
[35] = NCCLS breakpoints (Amox/Clav 2/1 mcg/mL)

CC[C@H]1OC(=O)[C@H](C)[C@@H](O[C@H]2C[C@@](C)(OC)[C@@H](O)[C@H](C)O2)[C@H](C)[C@@H](O[C@@H]2O[C@H](C)C[C@H](N(C)C)[C@H]2O)[C@](C)(O)C[C@@H](C)C(=O)[C@H](C)[C@@H](O)[C@]1(C)O [erythromycin]
resistance (PEN-NS >0.06, TET-R >1, ERY-R >0.5, CIP-R >2 mg/L) (Streptococcus pneumoniae [1]; Ireland 1999–2000, N 66): 27.3% | resistance (same cut-offs) (Streptococcus pneumoniae [1]; Ireland 2000–2001, N 59): 23.7% | resistance (same cut-offs) (Streptococcus pneumoniae [1]; Ireland 2001–2002, N 68): 25.0% | resistance (same cut-offs) (Streptococcus pneumoniae [1]; Ireland 2002–2003, N 89): 12.4% | resistance (same cut-offs) (Streptococcus pneumoniae [1]; Ireland 2003–2004, N 76): 9.2% | resistance (same cut-offs) (Streptococcus pneumoniae [1]; UK 1999–2000, N 595): 11.8% | resistance (same cut-offs) (Streptococcus pneumoniae [1]; UK 2000–2001, N 608): 10.0% | resistance (same cut-offs) (Streptococcus pneumoniae [1]; UK 2001–2002, N 631): 10.8% | resistance (same cut-offs) (Streptococcus pneumoniae [1]; UK 2002–2003, N 683): 9.7% | resistance (same cut-offs) (Streptococcus pneumoniae [1]; UK 2003–2004, N 709): 10.6% | % resistant [2]: 46.2% | % of sensitive strains ([3]; after pretreatment, Abs. 48): 22.9% | % of sensitive strains ([3]; without pretreatment, Abs. 95): 26.3% | % of sensitive strains (Kl. pneumoniae; after pretreatment, Abs. 5): 0.0% | % of sensitive strains (Kl. pneumoniae; without pretreatment, Abs. 4): 0.0% | Susceptible isolates (Moraxella spp.): 100% | % of sensitive strains (S. pyogenes [4]; after pretreatment): 100.0% | % of sensitive strains (S. pyogenes [4]; without pretreatment): 100.0% | % of sensitive strains (Other Haemophilus sp.; after pretreatment, Abs. 11): 0.0% | % of sensitive strains (Other Haemophilus sp.; without pretreatment, Abs. 21): 00% | % S (S. pneumoniae [5]): 82% | %R (S. pneumoniae [5]): 18% | MIC (C. difficile): > 256 µg/mL | %Sus (ERSP; [35]): 0.0% | MIC90 (ERSP; Streptococcus pneumoniae): > 32 µg/mL | % of sensitive strains (Enterococcus sp; after pretreatment, Abs. 0): 0.0% | % of sensitive strains (Enterococcus sp; without pretreatment, Abs. 1): 0.0% | %Sus (PRSP; [35]): 21.5% | MIC90 (PRSP; Streptococcus pneumoniae, PRSP): > 32 µg/mL | % of sensitive strains (P. aeruginosa [6]; after pretreatment): 0.0% | % of sensitive strains (P. aeruginosa [6]; without pretreatment): 0.0% | % of sensitive strains (S. -pneumoniae; after antibiotic pretreatment, Abs. 3): 100.0% | % of sensitive strains (S. -pneumoniae; without antibiotic pretreatment, Abs. 13): 100.0% | %Sus (S. pneumoniae [7]; [35]): 71.2% | MIC90 (S. pneumoniae [7]; Streptococcus pneumoniae): > 32 µg/mL | % of sensitive strains (Other Enterobacteriacae; after pretreatment, Abs. 5): 0.0% | % of sensitive strains (Other Enterobacteriacae; without pretreatment, Abs. 2): 0.0% | % of sensitive strains (E. coli [8]; after pretreatment, Abs. 1): 0.0% | % of sensitive strains (E. coli [8]; without pretreatment, Abs. 5): 0.0% | Susceptible isolates (H. influenzae [9]): 94% | significant biofilm killing [10]: not achieved | sensitivity, total strains ([11]; higher severity group (Fine scores >70)): 26,3% | sensitivity, total strains ([11]; lower severity group (Fine scores <70)): 17.6% | % of sensitive strains (S. aureus; after pretreatment, Abs. 4): 75.0% | % of sensitive strains (S. aureus; without pretreatment, Abs. 11): 45.5% | resistance rate (H. influenzae [12]; 2001–2002): 49.5% | resistance rate (H. influenzae [12]; 2003–2004): 58.0% | nonsusceptible (S. pyogenes [13]): 10.8% | resistance (S. pneumoniae (Sp)): 36% | % of sensitive strains ([14]; after pretreatment, Abs. 0): 0.0% | % of sensitive strains ([14]; without pretreatment, Abs. 1): 0.0% | % S (S. pneumoniae (SPN); 1998): 85% | % S (S. pneumoniae (SPN); 1999): 88% | % S (S. pneumoniae (SPN); 2000): 91% | % S (S. pneumoniae (SPN); 2001): 90% | % S (S. pneumoniae (SPN); 2002): 94% | % S (S. pneumoniae (SPN); 2003): 91% | Susceptible isolates [15]: 98% | % of sensitive strains (H. influenzae [16]; after pretreatment, Abs. 10): 0.0% | % of sensitive strains (H. influenzae [16]; without pretreatment, Abs. 26): 0.0% | % of sensitive strains (Staph. coaq (−); after pretreatment, Abs. 2): 50.0% | % of sensitive strains (Staph. coaq (−); without pretreatment, Abs. 4): 75.0% | MIC90 (H.influenzae): 8 µg/mL (≈ 10.9 µM) | MIC50 [17]: 0.12 µg/mL (≈ 0.164 µM) | MIC90 [17]: 256 µg/mL (≈ 349 µM)

CNC(C)C1CCC(N)C(OC2C(N)CC(N)C(OC3OCC(C)(O)C(NC)C3O)C2O)O1 (stereo not drawn) [gentamicin]
resistance (E. coli [18]): 82.7% | resistance rate [19]: 87,7% | susceptibility category (K. pneumoniae): resistant | Susceptible isolates (E. coli [20]; ICU, SRGA breakpoints, tigecycline tentative S ≤2 μg/ml): 98/98% | Susceptible isolates (E. coli [20]; non ICU): 98/98% | resistant isolates (Staphylococcus aureus [21]): 12% | resistance (nontyphoidal Salmonella; Belgian collection (caecal samples; Belgium, France, Netherlands)): ≤ 1% | resistance (nontyphoidal Salmonella; Germany (carcass meat)): ≤ 1% | Susceptible isolates (Enterobacter spp; ICU): 99% | Susceptible isolates (Enterobacter spp; non ICU): 100% | Susceptible isolates (K. oxytoca; ICU): 100/100% | Susceptible isolates (K. oxytoca; non ICU): 100/100% | resistance rate (NCCLS M100-S13) [22]: 0% | resistant isolates (Acinetobacter): 100.0% | significant biofilm killing [10]: not achieved | resistant isolates [23]: 17.9% | resistant isolates (Escherichia coli): 3.7% | resistant isolates (Haemophilus influenzae): 1.6% | resistance rate (NCCLS M100-S13) [24]: 4% | intermediatly resistant (Shigella spp.): 34% | sensitive (Shigella spp.): 54% | resistance rate (NCCLS M100-S13) [25]: 1% | resistance (enterococci): 66.7% | resistance (P. aeruginosa [26]): 86.7% | resistant isolates (Streptococcus pneumoniae [27]): 45.4% | resistance amongst MRSA isolates (Staphylococcus aureus [28]; 1999): 58.4% | resistance amongst MRSA isolates (Staphylococcus aureus [28]; 2003): 13.1% | resistance rate of SCV isolates (S. aureus SCVs): 46.2% | susceptible (Escherichia coli (ECO); NAL-resistant isolates): 68.9% | susceptible (Escherichia coli (ECO); NAL-susceptible isolates): 91.2% | high-level resistance ([17]; 107 strains): 0.9%

CC[C@H]1OC(=O)[C@H](C)C(=O)[C@H](C)[C@@H](O[C@@H]2O[C@H](C)C[C@H](N(C)C)[C@H]2O)[C@](C)(OC)C[C@@H](C)C(=O)[C@H](C)[C@H]2N(CCCCn3cnc(-c4cccnc4)c3)C(=O)O[C@]12C [telithromycin]
MIC90 [29]: 0.008 ig/ml | susceptible (S. pneumoniae [30]; year 1: 2002): 99.7% | susceptible (S. pneumoniae [30]; year 2: 2003): 99.1% | Susceptibility (S. pyogenes [31]): 92.7% | MIC90 [32]: 4 ig/ml | MIC90 [33]: 0.008 ig/ml | MIC90 [34]: 0.12 ig/ml | MIC50 [17]: 0.007 µg/mL (≈ 0.00862 µM) | MIC90 [17]: 2 µg/mL (≈ 2.46 µM)
